SMILES strings stand for the structures.

The test deals with T1, human GPR119 (Homo sapiens, UniProt Q8TDV5).
T1 construct: expressed in transfected cells; host or cells: HEK-293 cell line stably expressing recombinant GPR119
T1 sequence (Q8TDV5 1-335): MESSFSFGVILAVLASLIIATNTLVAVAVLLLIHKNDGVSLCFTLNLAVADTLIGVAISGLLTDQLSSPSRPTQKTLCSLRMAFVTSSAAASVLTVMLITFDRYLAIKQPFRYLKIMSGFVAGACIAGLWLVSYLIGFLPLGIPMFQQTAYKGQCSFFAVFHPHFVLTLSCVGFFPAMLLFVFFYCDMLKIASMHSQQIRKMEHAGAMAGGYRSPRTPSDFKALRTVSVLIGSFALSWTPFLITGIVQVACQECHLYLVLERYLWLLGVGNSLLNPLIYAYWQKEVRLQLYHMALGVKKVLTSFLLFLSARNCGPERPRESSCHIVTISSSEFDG
As to the kind of experiment: Functional cellular assay measuring GPR119-mediated cAMP release (HTRF), HEK-293 cells stably expressing recombinant GPR119. It counts as cell-based. As to conditions: cell line expressing human GPR119; cAMP response, 30 minutes at room temperature. The procedure: Functional Cellular Assays Measuring GPR119-Mediated cAMP Release.
Compounds of the invention, which are agonists of GPR119, were characterized by functional assays measuring the cAMP response of HEK-293 cell lines stably expressing recombinant GPR119 from man, mouse or rat, or by using a hamster cell line HIT-T15 expressing GPR119 endogenously. The cAMP content was determined using a kit based on homogenous time-resolved fluorescence (HTRF) from Cisbio Corp. (cat. no. 62AM4PEC). For preparation, cells were split into T175 culture flasks and grown to near confluency in medium (DMEM/10% FCS for HEK-293 cells, and F-12K medium/10% horse serum/2.5% FCS for HIT-T15 cells, respectively). Medium was then removed and cells washed with PBS lacking calcium and magnesium ions, followed by proteinase treatment with accutase (Sigma-Aldrich, cat. no. A6964). Detached cells were washed and resuspended in assay buffer (1×HBSS; 20 mM HEPES, 0.1% BSA, 2 mM IBMX) and cellular density determined. They were then diluted to 400000 cells/mL and 25 μL-aliquots dispensed to the wells of 96-well plates. For measurement, 25 μL of test compound in assay buffer was added and incubated for 30 minutes at room temperature. After addition of HTRF reagents diluted in lysis buffer, the plates were incubated for 1 hour, followed by measuring the fluorescence ratio at 665 vs. 620 nm. Potency of the agonists was quantified by determining the concentrations that caused 50% of the maximal response/activation (EC50). See Table 10 for exemplary data obtained using the cell line expressing human GPR119.
Take `O=C1CCc2c(F)cc(N3CC[C@@H](Oc4ccc(OCCn5ccnc5)nc4)C3=O)cc21` [Example 2-36]: the EC50 was 44.2 µM.

Regarding `Cn1ccnc1COc1ccc(O[C@@H]2CCN(c3cc(F)c4c(c3)C(=O)CC4)C2=O)cn1` [Example 2-37], the concentration for a half-maximal effect (EC50) stood at 24.3 µM.

Take `O=C1CC[C@H](COc2ccc(O[C@@H]3CCN(c4cc(F)c5c(c4)C(=O)CC5)C3=O)cn2)O1` [Example 2-38]: the concentration for a half-maximal effect (EC50) is 0.947 µM.

For the molecule `O=C1CCc2c(F)cc(N3CC[C@@H](Oc4ccc(OCCC(F)(F)F)nc4)C3=O)cc21` [Example 2-39], the concentration for a half-maximal effect (EC50) is 0.018 µM.

Turning to `CSCCCOc1ccc(O[C@@H]2CCN(c3cc(F)c4c(c3)C(=O)CC4)C2=O)cn1` [Example 2-40], the EC50 came to 0.103 µM.

Take `Cc1cc(COc2ccc(O[C@@H]3CCN(c4cc(F)c5c(c4)C(=O)CC5)C3=O)cn2)no1` [Example 2-41]: the half-maximal effective concentration (EC50) was 0.36 µM.

As for `O=C1CCc2c(F)cc(N3CC[C@@H](Oc4ccc(OCCCO)nc4)C3=O)cc21` [Example 2-42], the EC50 came to 1.31 µM.

Consider `CCOC(=O)COc1ccc(O[C@@H]2CCN(c3cc(F)c4c(c3)C(=O)CC4)C2=O)cn1` [Example 2-43], for which the 50% effective concentration (EC50) is 0.062 µM.

On to `O=C1CCc2c(F)cc(N3CC[C@@H](Oc4ccc(OC(CF)CF)nc4)C3=O)cc21` [Example 2-44], for which the concentration giving a half-maximal response (EC50) was 0.046 µM.

Regarding `CC(C)CC(C)Oc1ccc(O[C@@H]2CCN(c3cc(F)c4c(c3)C(=O)CC4)C2=O)cn1` (stereo partly drawn) [Example 2-45], the concentration for a half-maximal effect (EC50) was found to be 0.025 µM.

Consider `CC(C)C(C)Oc1ccc(O[C@@H]2CCN(c3cc(F)c4c(c3)C(=O)CC4)C2=O)cn1` (stereo partly drawn) [Example 2-46], for which the EC50 was 0.037 µM.

Consider `CCC(COC)Oc1ccc(O[C@@H]2CCN(c3cc(F)c4c(c3)C(=O)CC4)C2=O)cn1` (stereo partly drawn) [Example 2-47], for which the 50% effective concentration (EC50) amounted to 0.138 µM.

`O=C1CCc2c(F)cc(N3CC[C@@H](Oc4ccc(OCCF)nc4)C3=O)cc21` [Example 2-48]: the half-maximal effective concentration (EC50) was determined as 0.064 µM.

In the case of `CCC(Oc1ccc(O[C@@H]2CCN(c3cc(F)c4c(c3)C(=O)CC4)C2=O)cn1)C(C)C` (stereo partly drawn) [Example 2-49], the 50% effective concentration (EC50) was determined as 0.094 µM.

With `CC(CCO)CCOc1ccc(O[C@@H]2CCN(c3cc(F)c4c(c3)C(=O)CC4)C2=O)cn1` (stereo partly drawn) [Example 2-50], the EC50 was determined as 1.05 µM.

`CCOCC(C)Oc1ccc(O[C@@H]2CCN(c3cc(F)c4c(c3)C(=O)CC4)C2=O)cn1` (stereo partly drawn) [Example 2-51]: the EC50 was 0.077 µM.

As for `O=C1CCc2c(F)cc(N3CC[C@@H](Oc4ccc(OCc5cnccn5)nc4)C3=O)cc21` [Example 2-52], the EC50 amounted to 1.19 µM.

In the case of `CCOCCCOc1ccc(O[C@@H]2CCN(c3cc(F)c4c(c3)C(=O)CC4)C2=O)cn1` [Example 2-53], the 50% effective concentration (EC50) came out at 0.021 µM.

For `O=C1CCc2c(F)cc(N3CC[C@@H](Oc4ccc(OCC5CCCCO5)nc4)C3=O)cc21` (stereo partly drawn) [Example 2-54], the EC50 stood at 0.154 µM.

On to `O=C1CCc2c(F)cc(N3CC[C@@H](Oc4ccc(OCC5CCC5)nc4)C3=O)cc21` [Example 2-55], for which the EC50 was determined as 0.007 µM.

For `O=C1CCc2c(F)cc(N3CC[C@@H](Oc4ccc(OCCN5CCCC5=O)nc4)C3=O)cc21` [Example 2-56], the concentration for a half-maximal effect (EC50) was 9.3 µM.

Take `O=C1CCc2c(F)cc(N3CC[C@@H](Oc4ccc(OCC5CCCC5)nc4)C3=O)cc21` [Example 2-57]: the EC50 came out at 0.009 µM.

As for `CC(C)N(CCOc1ccc(O[C@@H]2CCN(c3cc(F)c4c(c3)C(=O)CC4)C2=O)cn1)C(C)C` [Example 2-58], the EC50 came to 7.53 µM.

With `CN1CCC[C@H]1COc1ccc(O[C@@H]2CCN(c3cc(F)c4c(c3)C(=O)CC4)C2=O)cn1` [Example 2-59], the EC50 was 2.22 µM.

Take `CC1(COc2ccc(O[C@@H]3CCN(c4cc(F)c5c(c4)C(=O)CC5)C3=O)cn2)CC1` [Example 2-60]: the EC50 came to 0.011 µM.

With `O=C1CCc2c(F)cc(N3CC[C@@H](Oc4ccc(OCCCF)nc4)C3=O)cc21` [Example 2-61], the concentration for a half-maximal effect (EC50) came out at 0.015 µM.

Take `COC(C)(C)CCOc1ccc(O[C@@H]2CCN(c3cc(F)c4c(c3)C(=O)CC4)C2=O)cn1` [Example 2-62]: the EC50 amounted to 0.068 µM.

As for `O=C1CCc2c(F)cc(N3CC[C@@H](Oc4ccc(OC5CCCC5)nc4)C3=O)cc21` [Example 2-63], the concentration for a half-maximal effect (EC50) worked out at 0.005 µM.

As to `CCC(CC)Oc1ccc(O[C@@H]2CCN(c3cc(F)c4c(c3)C(=O)CC4)C2=O)cn1` [Example 2-64], the half-maximal effective concentration (EC50) was 0.054 µM.

`O=C1CCc2c(F)cc(N3CC[C@@H](Oc4ccc(OCCCCCO)nc4)C3=O)cc21` [Example 2-65]: the EC50 came to 2.38 µM.

Regarding `O=C1CCc2c(F)cc(N3CC[C@@H](Oc4ccc(OC5CCCCC5)nc4)C3=O)cc21` [Example 2-66], the half-maximal effective concentration (EC50) stood at 0.016 µM.

In the case of `O=C1CCc2c(F)cc(N3CC[C@@H](Oc4ccc(OCCN5CCCC5)nc4)C3=O)cc21` [Example 2-67], the concentration for a half-maximal effect (EC50) was found to be 15 µM.

In the case of `O=C1CCc2c(F)cc(N3CC[C@@H](Oc4ccc(O[C@H]5CCOC5)nc4)C3=O)cc21` [Example 2-68], the EC50 turned out to be 0.09 µM.

As for `CO[C@@H](C)COc1ccc(O[C@@H]2CCN(c3cc(F)c4c(c3)C(=O)CC4)C2=O)cn1` [Example 2-69], the EC50 is 0.029 µM.

Consider `CC(=O)N1CCCC(Oc2ccc(O[C@@H]3CCN(c4cc(F)c5c(c4)C(=O)CC5)C3=O)cn2)C1` (stereo partly drawn) [Example 2-70], for which the EC50 worked out at 3.01 µM.

Take `Cn1cc(COc2ccc(O[C@@H]3CCN(c4cc(F)c5c(c4)C(=O)CC5)C3=O)cn2)cn1` [Example 2-71]: the concentration for a half-maximal effect (EC50) is 2.5 µM.

On to `O=C1CCc2c(F)cc(N3CC[C@@H](Oc4ccc(OC5CCC5)nc4)C3=O)cc21` [Example 2-72], for which the concentration for a half-maximal effect (EC50) stood at 0.016 µM.

`O=C1CCc2c(F)cc(N3CC[C@@H](Oc4ccc(OCC5CCCOC5)nc4)C3=O)cc21` (stereo partly drawn) [Example 2-73]: the concentration giving a half-maximal response (EC50) was found to be 0.159 µM.

For `O=C1CCc2c(F)cc(N3CC[C@@H](Oc4ccc(OC[C@H]5CCCO5)nc4)C3=O)cc21` [Example 2-74], the concentration for a half-maximal effect (EC50) is 0.084 µM.

For `O=C1CCc2c(F)cc(N3CC[C@@H](Oc4ccc(OCC5CCOC5)nc4)C3=O)cc21` (stereo partly drawn) [Example 2-75], the half-maximal effective concentration (EC50) came to 0.095 µM.

With `O=C1CCc2c(F)cc(N3CC[C@@H](Oc4ccc(O[C@@H]5CCOC5)nc4)C3=O)cc21` [Example 2-76], the EC50 stood at 0.094 µM.

On to `O=C1CCc2c(F)cc(N3CC[C@@H](Oc4ccc(OCC(F)(F)F)nc4)C3=O)cc21` [Example 2-77], for which the EC50 was determined as 0.044 µM.

For `O=C1CCc2c(F)cc(N3CC[C@@H](Oc4ccc(OC5CCCOC5)nc4)C3=O)cc21` (stereo partly drawn) [Example 2-78], the concentration giving a half-maximal response (EC50) worked out at 0.033 µM.

With `O=C1CCc2c(F)cc(N3CC[C@@H](Oc4ccc(OC5CCCOC5)nc4)C3=O)cc21` (stereo partly drawn) [Example 2-79], the EC50 is 0.064 µM.

Turning to `O=C1CCc2c(F)cc(N3CC[C@@H](Oc4ccc(OC(F)(F)F)cc4)C3=O)cc21` [Example 3-01], the EC50 came to 0.086 µM.

For the molecule `CC(C)c1noc(-c2ccc(O[C@@H]3CCN(c4cc(F)c5c(c4)C(=O)CC5)C3=O)cn2)n1` [Example 3-02], the EC50 is 0.141 µM.

Consider `Cc1cnc(-c2ccc(O[C@@H]3CCN(c4cc(F)c5c(c4)C(=O)CC5)C3=O)cn2)s1` [Example 3-03], for which the EC50 was 0.062 µM.

As to `O=C(OCC1CC1)c1ccc(O[C@@H]2CCN(c3cc(F)c4c(c3)C(=O)CC4)C2=O)cn1` [Example 3-04], the EC50 stood at 0.138 µM.

Turning to `O=C1CCc2c(F)cc(N3CC[C@@H](Oc4ccc(C(=O)N5CCCC5)nc4)C3=O)cc21` [Example 3-05], the half-maximal effective concentration (EC50) amounted to 3.18 µM.

Consider `CCCCN(C)C(=O)c1ccc(O[C@@H]2CCN(c3cc(F)c4c(c3)C(=O)CC4)C2=O)cn1` [Example 3-06], for which the EC50 turned out to be 0.978 µM.

As for `CCCCSc1ccc(O[C@@H]2CCN(c3cc(F)c4c(c3)C(=O)CC4)C2=O)cn1` [Example 3-07], the EC50 was 0.011 µM.

Turning to `CCCC[S+]([O-])c1ccc(O[C@@H]2CCN(c3cc(F)c4c(c3)C(=O)CC4)C2=O)cn1` (stereo partly drawn) [Example 3-08], the EC50 came to 0.558 µM.

Regarding `O=C1CCc2c(F)cc(N3CC[C@@H](Oc4cnc(OCC5CC5)c(F)c4)C3=O)cc21` [Example 3-09], the EC50 is 0.012 µM.

On to `Cc1cc(O[C@@H]2CCN(c3cc(F)c4c(c3)C(=O)CC4)C2=O)cnc1OCC1CC1` [Example 3-10], for which the EC50 came out at 0.018 µM.

As for `O=C1CCc2c(F)cc(N3CC[C@H](Oc4ccc(OCCC5CC5)nc4)C3=O)cc21` [Example 3-11], the concentration for a half-maximal effect (EC50) came to 0.258 µM.

For `O=C1CCc2c(F)cc(N3CC[C@H](Oc4ccc(OCC5CC5)nc4)C3=O)cc21` [Example 3-12], the EC50 was 0.281 µM.

As for `O=C1CCc2c(F)cc(N3CC[C@@H](Oc4ccc(OC5CC5)nc4)C3=O)cc21` [Example 3-13, (R)-3-(6-Cyclopropoxy-pyridin-3-yloxy)-1-(7-fluoro-3-oxo-indan-5-yl)-pyrrolidin-2-one], the EC50 is 0.019 µM.
